Test system: MV-4-11 cells
Assay: Gene expression microarray analysis (Affymetrix PrimeView) and GSEA
Assay type: cell-based, human
Design: RFU PODN (11730768_x_at) / Fold change /veh PODN (11730768_x_at) / RFU LINC00158 (11744669_a_at) / Fold change /veh LINC00158 (11744669_a_at) / RFU DUSP10 (11751237_a_at) / Fold change /veh DUSP10 (11751237_a_at) / RFU ID3 (11757404_x_at) / Fold change /veh ID3 (11757404_x_at) / RFU PLEKHG5 (11737974_s_at) / Fold change /veh PLEKHG5 (11737974_s_at) / RFU LRRC4B (11730491_at) / Fold change /veh LRRC4B (11730491_at) / RFU GIMAP4 (11747438_a_at) / Fold change /veh GIMAP4 (11747438_a_at) / RFU KRT8 (11758183_x_at) / Fold change /veh KRT8 (11758183_x_at) / RFU CNN1 (11734310_a_at) / Fold change /veh CNN1 (11734310_a_at) / RFU VPS37D (11726825_at) / Fold change /veh VPS37D (11726825_at) / RFU C10orf10 (11716522_x_at) / Fold change /veh C10orf10 (11716522_x_at) / RFU KIR2DL2 /// KIR2DL4 /// KIR2DL5A /// KIR2DL5B /// KIR2DS1 /// KIR2DS2 /// KIR2DS3 /// KIR2DS4 /// KIR3DL3 /// KIR3DL3 /// KIR3DS1 (11738374_at) / Fold change /veh KIR2DL2 /// KIR2DL4 /// KIR2DL5A /// KIR2DL5B /// KIR2DS1 /// KIR2DS2 /// KIR2DS3 /// KIR2DS4 /// KIR3DL3 /// KIR3DL3 /// KIR3DS1 (11738374_at) / RFU C1QL1 (11718748_at) / Fold change /veh C1QL1 (11718748_at) / RFU TMPRSS4 (11747572_a_at) / Fold change /veh TMPRSS4 (11747572_a_at) / RFU HAMP (11756126_x_at) / Fold change /veh HAMP (11756126_x_at) / RFU RNFT2 (11725882_a_at) / Fold change /veh RNFT2 (11725882_a_at) / RFU NR4A2 (11747474_a_at) / Fold change /veh NR4A2 (11747474_a_at) / RFU ABCC12 (11746883_a_at) / Fold change /veh ABCC12 (11746883_a_at) / RFU TMEM136 (11760407_x_at) / Fold change /veh TMEM136 (11760407_x_at) / RFU CLDN22 /// WWC2 (11732394_at) / Fold change /veh CLDN22 /// WWC2 (11732394_at) / RFU HLA-DPB1 (11760878_x_at) / Fold change /veh HLA-DPB1 (11760878_x_at) / RFU SPINT1 (11716480_a_at) / Fold change /veh SPINT1 (11716480_a_at) / RFU GAP43 (11754022_s_at) / Fold change /veh GAP43 (11754022_s_at) / RFU A4GNT (11735810_at) / Fold change /veh A4GNT (11735810_at) / RFU PRB3 (11715151_x_at) / Fold change /veh PRB3 (11715151_x_at) / RFU TUBB4B (11761932_at) / Fold change /veh TUBB4B (11761932_at) / RFU CAPN14 (11732068_a_at) / Fold change /veh CAPN14 (11732068_a_at) / RFU TMCC2 (11721928_a_at) / Fold change /veh TMCC2 (11721928_a_at) / RFU IRGQ (11745062_a_at) / Fold change /veh IRGQ (11745062_a_at) / RFU FAM174B (11720279_a_at) / Fold change /veh FAM174B (11720279_a_at) / RFU TMPRSS4 (11748680_a_at) / Fold change /veh TMPRSS4 (11748680_a_at) / RFU FAM212B (11763350_a_at) / Fold change /veh FAM212B (11763350_a_at) / RFU PLEKHG5 (11743358_a_at) / Fold change /veh PLEKHG5 (11743358_a_at) / RFU ZSCAN30 (11745921_a_at) / Fold change /veh ZSCAN30 (11745921_a_at) / RFU CMKLR1 (11741424_a_at) / Fold change /veh CMKLR1 (11741424_a_at) / RFU LOC101060620 /// MAPK8IP1 (11723275_at) / Fold change /veh LOC101060620 /// MAPK8IP1 (11723275_at) / RFU SPTSSB (11747773_x_at) / Fold change /veh SPTSSB (11747773_x_at) / RFU PRSS12 (11739890_at) / Fold change /veh PRSS12 (11739890_at) / RFU BIN1 (11741810_x_at) / Fold change /veh BIN1 (11741810_x_at) / RFU WNT11 (11732464_a_at) / Fold change /veh WNT11 (11732464_a_at) / RFU C10orf10 (11716521_a_at) / Fold change /veh C10orf10 (11716521_a_at) / RFU C5orf56 (11738089_at) / Fold change /veh C5orf56 (11738089_at) / RFU CYB561 (11721691_x_at) / Fold change /veh CYB561 (11721691_x_at) / RFU ANKRD19P (11752326_a_at) / Fold change /veh ANKRD19P (11752326_a_at) / RFU OR2T12 /// OR2T33 /// OR2T8 (11738714_s_at) / Fold change /veh OR2T12 /// OR2T33 /// OR2T8 (11738714_s_at) / RFU VCAN (11748164_a_at) / Fold change /veh VCAN (11748164_a_at) / RFU JSRP1 (11732532_at) / Fold change /veh JSRP1 (11732532_at) / RFU KRTAP10-11 (11738290_x_at) / Fold change /veh KRTAP10-11 (11738290_x_at) / RFU MYO3A (11730013_a_at) / Fold change /veh MYO3A (11730013_a_at) / RFU EBF3 (11725865_a_at) / Fold change /veh EBF3 (11725865_a_at) / RFU CAMK2N1 (11719241_x_at) / Fold change /veh CAMK2N1 (11719241_x_at) / RFU C5orf56 (11738088_a_at) / Fold change /veh C5orf56 (11738088_a_at) / RFU OLFML3 (11715873_a_at) / Fold change /veh OLFML3 (11715873_a_at) / RFU LOC100653217 /// NTM (11731650_a_at) / Fold change /veh LOC100653217 /// NTM (11731650_a_at) / RFU MAPK11 (11762145_a_at) / Fold change /veh MAPK11 (11762145_a_at) / RFU FIZ1 (11724087_x_at) / Fold change /veh FIZ1 (11724087_x_at) / RFU OASL (11726364_x_at) / Fold change /veh OASL (11726364_x_at) / RFU SOX15 (11748057_x_at) / Fold change /veh SOX15 (11748057_x_at) / RFU CD79A (11719716_a_at) / Fold change /veh CD79A (11719716_a_at) / RFU HIST1H1D (11736915_at) / Fold change /veh HIST1H1D (11736915_at) / RFU CASKIN2 (11723855_a_at) / Fold change /veh CASKIN2 (11723855_a_at) / RFU LOC730098 (11760151_x_at) / Fold change /veh LOC730098 (11760151_x_at) / RFU OR4N2 (11742367_at) / Fold change /veh OR4N2 (11742367_at) / RFU PRRT2 (11749266_a_at) / Fold change /veh PRRT2 (11749266_a_at) / RFU SNX32 (11753110_a_at) / Fold change /veh SNX32 (11753110_a_at) / RFU CDHR5 (11726645_a_at) / Fold change /veh CDHR5 (11726645_a_at) / RFU RCAN1 (11760418_a_at) / Fold change /veh RCAN1 (11760418_a_at) / RFU FAM167A (11723789_a_at) / Fold change /veh FAM167A (11723789_a_at) / RFU FAM26E (11764081_at) / Fold change /veh FAM26E (11764081_at) / RFU ISYNA1 (11749810_s_at) / Fold change /veh ISYNA1 (11749810_s_at) / RFU ACY1 (11761880_at) / Fold change /veh ACY1 (11761880_at) / RFU 11764098_at / Fold change /veh 11764098_at / RFU SAMD14 (11745864_x_at) / Fold change /veh SAMD14 (11745864_x_at) / RFU NPB (11741838_a_at) / Fold change /veh NPB (11741838_a_at) / RFU TMPRSS6 (11731388_a_at) / Fold change /veh TMPRSS6 (11731388_a_at) / RFU KRTAP10-2 (11738614_at) / Fold change /veh KRTAP10-2 (11738614_at) / RFU ARHGAP8 /// PRR5-ARHGAP8 (11727945_x_at) / Fold change /veh ARHGAP8 /// PRR5-ARHGAP8 (11727945_x_at) / RFU KRTAP5-7 /// NADSYN1 (11734609_at) / Fold change /veh KRTAP5-7 /// NADSYN1 (11734609_at) / RFU RASL12 (11751679_a_at) / Fold change /veh RASL12 (11751679_a_at) / RFU CDKN2B (11736163_a_at) / Fold change /veh CDKN2B (11736163_a_at) / RFU PRF1 (11729649_at) / Fold change /veh PRF1 (11729649_at) / RFU, ZNF638 /// ZNF638-IT1 / Fold change vs veh, ZNF638 /// ZNF638-IT1 / RFU, PANK3 / Fold change vs veh, PANK3 / RFU, SH3YL1 / Fold change vs veh, SH3YL1 / RFU, ZEB2 / Fold change vs veh, ZEB2 / RFU, NRIP1 / Fold change vs veh, NRIP1 / RFU, PTTG1IP / Fold change vs veh, PTTG1IP / RFU, CAPN2 / Fold change vs veh, CAPN2 / RFU, MED14 / Fold change vs veh, MED14 / RFU, SNORA58 / Fold change vs veh, SNORA58 / RFU, C1orf63 / Fold change vs veh, C1orf63 / RFU, LRRFIP1 / Fold change vs veh, LRRFIP1 / RFU, NDUFAF7 / Fold change vs veh, NDUFAF7 / RFU, SLC12A2 / Fold change vs veh, SLC12A2 / RFU, IBTK / Fold change vs veh, IBTK / RFU, ESF1 / Fold change vs veh, ESF1 / Fold change vs veh, TMEM50B / RFU, TAOK1 / Fold change vs veh, TAOK1 / RFU, ACBD3 / Fold change vs veh, ACBD3 / RFU, TMA16 / Fold change vs veh, TMA16 / RFU, RWDD3 / Fold change vs veh, RWDD3 / RFU, BCAT1 / Fold change vs veh, BCAT1 / RFU, EDEM3 / Fold change vs veh, EDEM3 / RFU, TMEM33 / Fold change vs veh, TMEM33 / RFU, WDR75 / Fold change vs veh, WDR75 / RFU, AHCTF1 / Fold change vs veh, AHCTF1 / RFU, TFRC / Fold change vs veh, TFRC / RFU, ZDHHC17 / Fold change vs veh, ZDHHC17 / RFU, NOM1 / Fold change vs veh, NOM1 / RFU, ARL8B / Fold change vs veh, ARL8B / RFU, ZBTB11 / Fold change vs veh, ZBTB11 / RFU, TAMM41 / Fold change vs veh, TAMM41 / RFU, KIAA1704 /// LOC100996395 / Fold change vs veh, KIAA1704 /// LOC100996395 / RFU, ING1 / Fold change vs veh, ING1 / RFU, TRMT61B / Fold change vs veh, TRMT61B / RFU, FUBP3 / Fold change vs veh, FUBP3 / RFU, TP53 / Fold change vs veh, TP53 / RFU, TNKS2 / Fold change vs veh, TNKS2 / RFU, ZFP14 / Fold change vs veh, ZFP14 / RFU, ACTR2 / Fold change vs veh, ACTR2 / RFU, PPP3R1 / Fold change vs veh, PPP3R1 / RFU, PIK3R1 / Fold change vs veh, PIK3R1 / RFU, HNRNPA1 / Fold change vs veh, HNRNPA1 / RFU, RNF170 / Fold change vs veh, RNF170 / RFU, ZNF28 / Fold change vs veh, ZNF28 / RFU, RNGTT / Fold change vs veh, RNGTT / RFU, OGT / Fold change vs veh, OGT / RFU, BRD1 / Fold change vs veh, BRD1 / RFU, MARS / Fold change vs veh, MARS / RFU, ZNF655 / Fold change vs veh, ZNF655 / RFU, FAHD1 / Fold change vs veh, FAHD1 / RFU, BDP1 / Fold change vs veh, BDP1 / RFU, LRRCC1 / Fold change vs veh, LRRCC1 / RFU, ARID1A / Fold change vs veh, ARID1A / RFU, ZNF146 / Fold change vs veh, ZNF146 / RFU, ZNF330 / Fold change vs veh, ZNF330 / RFU, GPN3 / Fold change vs veh, GPN3 / RFU, C9orf123 / Fold change vs veh, C9orf123 / RFU, N4BP2L2 / Fold change vs veh, N4BP2L2 / RFU, ARFIP1 / Fold change vs veh, ARFIP1 / RFU, FAM179B / Fold change vs veh, FAM179B / RFU, BCL10 / Fold change vs veh, BCL10 / RFU, UHRF1BP1L / Fold change vs veh, UHRF1BP1L / RFU, BET1 / Fold change vs veh, BET1 / RFU, CNOT2 / Fold change vs veh, CNOT2 / RFU, ZNF268 / Fold change vs veh, ZNF268 / Fold change vs veh, ZNF507 / RFU, DGCR2 / Fold change vs veh, DGCR2 / RFU, WDSUB1 / Fold change vs veh, WDSUB1 / Fold change vs veh, HSP90B1 /// MIR3652 / RFU, ADSS / Fold change vs veh, ADSS / RFU, GK / Fold change vs veh, GK / RFU, ZNF148 / Fold change vs veh, ZNF148 / RFU, TAF9 / Fold change vs veh, TAF9 / RFU, SLC1A5 / Fold change vs veh, SLC1A5 / RFU, SLMO2 / Fold change vs veh, SLMO2 / RFU, ABCC4 / Fold change vs veh, ABCC4 / RFU, LOC101060439 /// RAP1B / Fold change vs veh, LOC101060439 /// RAP1B / RFU, RFX7 / Fold change vs veh, RFX7 / RFU, GTPBP10 / Fold change vs veh, GTPBP10 / RFU, CNEP1R1 / Fold change vs veh, CNEP1R1 / RFU, BIVM-ERCC5 /// ERCC5 / Fold change vs veh, BIVM-ERCC5 /// ERCC5 / RFU, ILF3 / Fold change vs veh, ILF3 / RFU 11762660_at / Fold change /veh 11762660_at / RFU VCAN (11757783_s_at) / Fold change /veh VCAN (11757783_s_at) / RFU DDX43 (11728927_at) / Fold change /veh DDX43 (11728927_at) / RFU KRT8 (11758188_x_at) / Fold change /veh KRT8 (11758188_x_at) / RFU NKD1 (11759106_at) / Fold change /veh NKD1 (11759106_at) / RFU SRD5A1 (11742802_a_at) / Fold change /veh SRD5A1 (11742802_a_at) / RFU TPSAB1 /// TPSB2 (11721975_s_at) / Fold change /veh TPSAB1 /// TPSB2 (11721975_s_at) / RFU GSTM3 (11746129_a_at) / Fold change /veh GSTM3 (11746129_a_at) / RFU IL23R (11737362_x_at) / Fold change /veh IL23R (11737362_x_at) / RFU TMEM51 (11727254_a_at) / Fold change /veh TMEM51 (11727254_a_at) / RFU PIWIL2 (11732686_x_at) / Fold change /veh PIWIL2 (11732686_x_at) / RFU ORM1 (11744905_x_at) / Fold change /veh ORM1 (11744905_x_at) / RFU CCDC152 (11743942_at) / Fold change /veh CCDC152 (11743942_at) / RFU ECM1 (11717891_a_at) / Fold change /veh ECM1 (11717891_a_at) / RFU IL23R (11748794_a_at) / Fold change /veh IL23R (11748794_a_at) / RFU TNFAIP8L3 (11732012_x_at) / Fold change /veh TNFAIP8L3 (11732012_x_at) / RFU MBOAT4 (11741988_at) / Fold change /veh MBOAT4 (11741988_at) / RFU 11764193_at / Fold change /veh 11764193_at / RFU TMEM53 (11763286_at) / Fold change /veh TMEM53 (11763286_at) / RFU MAGEB2 (11727129_at) / Fold change /veh MAGEB2 (11727129_at) / RFU TMEM200A (11744735_a_at) / Fold change /veh TMEM200A (11744735_a_at) / RFU CCDC152 (11751479_a_at) / Fold change /veh CCDC152 (11751479_a_at) / RFU FAM211A (11726209_a_at) / Fold change /veh FAM211A (11726209_a_at) / RFU RGS16 (11746705_a_at) / Fold change /veh RGS16 (11746705_a_at) / RFU VCAN (11755009_s_at) / Fold change /veh VCAN (11755009_s_at) / RFU RHOB (11743442_s_at) / Fold change /veh RHOB (11743442_s_at) / RFU RGS16 (11720943_a_at) / Fold change /veh RGS16 (11720943_a_at) / RFU RGS16 (11720944_at) / Fold change /veh RGS16 (11720944_at) / RFU, VPS4B / Fold change vs veh, VPS4B / RFU, CREB1 / Fold change vs veh, CREB1 / RFU, DNAJC13 / Fold change vs veh, DNAJC13 / RFU, GNAQ / Fold change vs veh, GNAQ / RFU, CDK5R1 / Fold change vs veh, CDK5R1 / RFU, ZRANB3 / Fold change vs veh, ZRANB3 / RFU, CUL4A / Fold change vs veh, CUL4A / RFU, CCNY / Fold change vs veh, CCNY / RFU, UFL1 / Fold change vs veh, UFL1 / RFU, COG3 / Fold change vs veh, COG3 / RFU, DIAPH2 / Fold change vs veh, DIAPH2 / RFU, SKA2 / Fold change vs veh, SKA2 / RFU, AFF3 / Fold change vs veh, AFF3 / RFU, LMF1 / Fold change vs veh, LMF1 / RFU, IPO11 / Fold change vs veh, IPO11 / RFU, DFFB / Fold change vs veh, DFFB / RFU, FOXP1 / Fold change vs veh, FOXP1 / RFU, CARD8 / Fold change vs veh, CARD8 / RFU, STRN3 / Fold change vs veh, STRN3 / RFU, ADK / Fold change vs veh, ADK / RFU, RASSF2 / Fold change vs veh, RASSF2 / RFU, WIPF1 / Fold change vs veh, WIPF1 / RFU, LARP1B / Fold change vs veh, LARP1B / RFU, RASA1 / Fold change vs veh, RASA1 / RFU, RB1 / Fold change vs veh, RB1 / RFU, PPFIA1 / Fold change vs veh, PPFIA1 / RFU, MAT2A / Fold change vs veh, MAT2A / RFU, CCT5 / Fold change vs veh, CCT5 / RFU, WDR92 / Fold change vs veh, WDR92 / RFU, CUX1 / Fold change vs veh, CUX1 / RFU, TTC7A / Fold change vs veh, TTC7A / RFU, TMEM135 / Fold change vs veh, TMEM135 / RFU, DEPTOR / Fold change vs veh, DEPTOR / RFU, CPM / Fold change vs veh, CPM / RFU, DNAJB6 / Fold change vs veh, DNAJB6 / RFU, CACNA2D3 / Fold change vs veh, CACNA2D3 / RFU, DTX4 / Fold change vs veh, DTX4 / RFU, TFCP2 / Fold change vs veh, TFCP2 / RFU, GMCL1 /// GMCL1P1 / Fold change vs veh, GMCL1 /// GMCL1P1 / RFU, AEBP2 / Fold change vs veh, AEBP2 / RFU, SNHG1 /// SNORD22 /// SNORD25 /// SNORD26 /// SNORD27 /// SNORD28 /// SNORD29 /// SNORD31 / Fold change vs veh, SNHG1 /// SNORD22 /// SNORD25 /// SNORD26 /// SNORD27 /// SNORD28 /// SNORD29 /// SNORD31 / Fold change (Aza/veh), C12orf56 (ProbeSet 11735607_a_at) / Fold change (ACY-1035/veh), C12orf56 (ProbeSet 11735607_a_at) / Fold change (Aza/veh), FGFR1OP (ProbeSet 11751329_s_at) / Fold change (ACY-1035/veh), FGFR1OP (ProbeSet 11751329_s_at) / Fold change (Aza/veh), VPS36 (ProbeSet 11739960_a_at) / Fold change (ACY-1035/veh), VPS36 (ProbeSet 11739960_a_at) / RFU SYPL1 (11715823_x_at) / Fold change /veh SYPL1 (11715823_x_at) / RFU IGFBP7 (11715501_s_at) / Fold change /veh IGFBP7 (11715501_s_at) / RFU REEP3 (11722064_at) / Fold change /veh REEP3 (11722064_at) / RFU IGLL1 (11728026_x_at) / Fold change /veh IGLL1 (11728026_x_at): dose or concentration left out as unconfirmed
Conditions: ProbeSet 11758397_s_at; LIST B

## Nc1ncn([C@@H]2O[C@H](CO)[C@@H](O)[C@H]2O)c(=O)n1 [azacitidine]
  RFU, RNF170: 159.42 RFU
